Experiments:
human PRP = test: Human platelet aggregation inhibition test; assay type: cell-based; conditions: ADP-induced aggregation (1×10^−5 M ADP) in human platelet-rich plasma
Protocol: Blood collected from healthy human volunteers in aqueous trisodium citrate solution was centrifuged at 150 g for 15 min and the upper layer was recovered to obtain platelet-rich plasma (PRP). The residual blood was centrifuged at 3000 g for 10 min and the supernatant was collected as platelet-poor plasma (PPP). Platelet concentration in the PRP was determined using the Z series Beckman Coulter particle counter (Beckman, Fullerton, Calif.) and adjusted to 250,000 platelets/μL using PPP. 480 μL of PRP was pre-incubated at 37° C. and stirred at 1200 rpm with 10 μL aqueous test compound solution for 1 min prior to induction of aggregation by the addition of 10 μL of aqueous adenosine diphosphate (ADP) solution to adjust the final ADP concentration in the PRP to 1×10^−5 M. The maximal amplitude of aggregation response within 3 min was determined and measured in triplicate using the Chronolog model 490 aggregometer (Chrono-log Corp., Havertown, Pa.). Percent inhibition of aggregation was calculated from the maximum decrease in optical density of the control (addition of water in place of the test compound solution) sample and of the samples containing test compound. The test compound was added to adjust the final concentration to the range 10^−9 to 10^−4 M, and IC50 values were determined by inhibition percentage of aggregation at each concentration.

[1] = target: human prostacyclin (PGI2) receptor (Homo sapiens (Human), UniProt P43119); test: HTRF assay for direct cAMP measurement; assay type: cell-based; conditions: recombinant CHO-K1 cells stably transfected with human prostacyclin receptor; cAMP increase
Sequence of human prostacyclin (PGI2) receptor (P43119 whole entry): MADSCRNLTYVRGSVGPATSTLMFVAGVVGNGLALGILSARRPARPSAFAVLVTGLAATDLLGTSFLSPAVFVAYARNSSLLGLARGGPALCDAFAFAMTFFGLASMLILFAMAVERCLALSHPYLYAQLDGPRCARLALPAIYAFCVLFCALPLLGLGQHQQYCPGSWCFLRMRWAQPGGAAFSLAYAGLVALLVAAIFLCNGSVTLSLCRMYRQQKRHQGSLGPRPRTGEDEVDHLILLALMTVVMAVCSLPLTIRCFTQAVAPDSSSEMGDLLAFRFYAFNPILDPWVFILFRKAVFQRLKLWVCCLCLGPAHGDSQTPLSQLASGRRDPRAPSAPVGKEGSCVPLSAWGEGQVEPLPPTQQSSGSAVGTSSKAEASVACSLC
Excerpt: Compounds were screened for agonists of the human prostacyclin (PGI2) receptor using the HTRF® assay for direct cAMP measurement (Gabriel et al., ASSAY and Drug Development Technologies, 1:291-303, 2003) and recombinant CHO-K1 cells stably transfected with human prostacyclin receptor. CHO-K1 cells were obtained from ATCC® (Manassas, Va.; Catalog # CCL-61). An agonist of the prostacyclin receptor was detected in HTRF® assay for direct cAMP measurement as a compound which increased cAMP concentration. HTRF® assay also was used to determine EC50 values for prostacyclin receptor agonists.
The HTRF® assay kit was purchased from Cisbio-US, Inc. (Bedford, Mass.; Catalog #62AM4PEC). The HTRF® assay supported by the kit is a competitive immunoassay between endogenous cAMP produced by the CHO-K1 cells and tracer cAMP labeled with the dye d2. The tracer binding is visualized by a monoclonal anti-cAMP antibody labeled with Cryptate. The specific signal (i.e., fluorescence resonance energy transfer, FRET) is inversely proportional to the concentration of unlabeled cAMP in the standard or sample.
The fluorescence ratio (665 nm/620 nm) of the standards (0.17 to 712 nM cAMP) included in the assay was calculated and used to generate a cAMP standard curve according to the kit manufacturer's instructions. The fluorescence ratio of the samples (test compound or compound buffer) was calculated and used to deduce respective cAMP concentrations by reference to the cAMP standard curve.
The HTRF® assay was carried out using a two-step protocol essentially according to the kit manufacturer's instructions, in 20 μL total volume per well in 384-well plate format (ProxiPlates; PerkinElmer, Fremont, Calif.; catalog #6008280). To each of the experimental wells was transferred 3000 recombinant CHO-K1 cells in 5 μL assay buffer (phosphate buffered saline containing calcium chloride and magnesium chloride (Invitrogen, Carlsbad, Calif.; catalog #14040) supplemented with IBMX ([…]) and rolipram ([…]) (phosphodiesterase inhibitors; Sigma-Aldrich, St. Louis, Mo.; catalog #15879 and catalog # R6520, respectively) and 0.1% bovine serum albumin (BSA) fraction V (Sigma-Aldrich; catalog # A3059)), followed by test compound in 5 μL assay buffer or 5 μL assay buffer. The plate was then incubated at room temperature for 1 h. To each well was then added 5 μL cAMP-d2 conjugate in lysis buffer and 5 μL Cryptate conjugate in lysis buffer according to the kit manufacturer's instructions. The plate was then further incubated at room temperature for 1 h, after which the assay plate was read.
The HTRF® readout was accomplished using a PHERAstar (BMG LABTECH Inc., Durham, N.C.) or EnVision™ (PerkinElmer, Fremont Calif.) microplate reader.

[2] = system: MCT-induced pulmonary arterial hypertension in rat; test: Rat monocrotaline (MCT) model of pulmonary arterial hypertension; assay type: in vivo; conditions: 30 mg/kg oral gavage twice a day for 21 days, male Wistar rats, 60 mg/kg MCT s.c.; FIG. 1
Protocol: Male Wistar rats (100-150 g at start of study) (Charles River Laboratories, Wilmington, Mass.) were housed two per cage and maintained in a humidity-(40-60%) and temperature-(68-72° F.) controlled facility on a 12 hr: 12 hr light/dark cycle (lights on at 6:30 am) with free access to food (Harlan Teklad, Orange Calif., Rodent Diet 8604) and water. Rats were allowed one week of habituation to the animal facility before testing.
The rat monocrotaline (MCT) model is a standard and well-accepted model of pulmonary arterial hypertension. MCT induces acute pulmonary endothelial damage associated with pulmonary vascular inflammation. […]
Rats were randomly given a single subcutaneous injection of either 60 mg/kg MCT (Sigma, St. Louis, Mo.) or 0.9% saline (sham) and assigned to receive oral administration of 20% hydroxypropyl beta-cyclodextrin (vehicle) or test compound (30 mg/kg; FIG. 1). […] Heart chamber weights were measured on Day 22. […] The ratio of right ventricular (RV) weight to left ventricle plus septum (LV+S) weight (this ratio is indicated as “RV/(LV+S)” in FIG. 1) was calculated as an index of the hypertrophic response to the induced pulmonary arterial hypertension and, as such, as an index of a test compound's therapeutic efficacy for pulmonary arterial hypertension.

O=C(O)COC[C@H]1CC[C@@H](Cn2nc(-c3ccccc3)c(-c3cccc(F)c3F)cc2=O)CC1 [Compound 8, 2-(((1s,4s)-4-((4-(2,3-difluorophenyl)-6-oxo-3-phenylpyridazin-1(6H)-yl)methyl)cyclohexyl)methoxy)acetic acid] gave an IC50 (human PRP) of 67 nM.

O=C(O)COC[C@H]1CC[C@@H](Cn2nc(-c3ccccc3)c(-c3cccc(Cl)c3F)cc2=O)CC1 [Compound 31, 2-(((1s,4s,)-4-((4-(3-chloro-2-fluorophenyl)-6-oxo-3-phenylpyridazin-1(6H)-yl)methyl)cyclohexyl)methoxy)acetic acid] gave an EC50 [1] of 31 nM and an IC50 (human PRP) of 21 nM.

Cc1ccc(-c2nc(=O)n(C[C@H]3CC[C@@H](COCC(=O)O)CC3)nc2-c2ccc(C)cc2)cc1 [Compound 43, 2-(((1s,4s)-4-((3-oxo-5,6-di-p-tolyl-1,2,4-triazin-2(3H)-yl)methyl)cyclohexyl)methoxy)acetic acid] gave an EC50 [1] of 36 nM and an IC50 (human PRP) of 130 nM.

Work on O=C(O)COC[C@H]1CC[C@@H](Cn2nc(-c3ccccc3)c(-c3cccc(Cl)c3)nc2=O)CC1 [Compound 67, 2-(((1s,4s)-4-((5-(3-chlorophenyl)-3-oxo-6-phenyl-1,2,4-triazin-2(3H)-yl)methyl)cyclohexyl)methoxy)acetic acid] yielded an EC50 [1] of 73 nM.

Cc1ccc(-c2nn(C[C@H]3CC[C@@H](COCC(=O)O)CC3)c(=O)nc2-c2ccccc2)cc1 [Compound 68, 2-(((1s,4s)-4-((3-oxo-5-phenyl-6-p-tolyl-1,2,4-triazin-2(3H)-yl)methyl)cyclohexyl)methoxy)acetic acid] was tested, and the “right ventricle hypertrophic response, RV/(LV+S)” value [2] was “inhibited the hypertrophic response”.

Work on COc1ccc(-c2nn(C[C@H]3CC[C@@H](COCC(=O)O)CC3)c(=O)nc2-c2ccccc2)cc1 [Compound 69, 2-(((1s,4s)-4-((6-(4-methoxyphenyl)-3-oxo-5-phenyl-1,2,4-triazin-2(3H)-yl)methyl)cyclohexyl)methoxy)acetic acid] yielded an EC50 [1] of 8 nM and an IC50 (human PRP) of 22 nM.

Source: US10793529B2, “Substituted pyridazines and 1,2,4-triazines as prostacyclin receptor modulators” (Arena Pharmaceuticals, Inc., priority 2008, dated 2020)
